Values of other authors as cited in patent US20150217002A1, “NEAR-INFRARED SPECTROSCOPY AND OPTICAL REPORTER” (THE RESEARCH FOUNDATION FOR THE STATE UNIVERSITY OF NEW YORK, priority 2012, published 2015).

Assays:
[1] = removed from the circulation system by the liver
[2] = in blood excited with 800 nm light, 0.08 mg/L

In the case of `CC1(C)C(/C=C/C=C/C=C/C=C2\N(CCCCS(=O)(=O)O)c3ccc4ccccc4c3C2(C)C)=[N+](CCCCS(=O)(=O)[O-])c2ccc3ccccc3c21` [ICG, indocyanine green], the in vivo half-life [1] is listed as “about 3 minutes” and the quantum yield [2] is listed as “about 0.013”.
